ChEMBL document CHEMBL4261621, “Synthesis of enamino-2-oxindoles via conjugate addition between α-azido ketones and 3-alkenyl oxindoles: Cytotoxicity evaluation and apoptosis inducing studies” (Bioorg Med Chem Lett, 2018)
Calls of active or inactive are those of the source. No cut-off for these calls is given here.

Legend:
[1] = tested on: NCI-H460; experiment: Induction of apoptosis in human NCI-H460 cells assessed as viable cells at 1 uM after 72 hrs by Annexin V-alexa fluor 488/propidium iodide staining based flow cytometry (reference value: 98.55%); type: functional; conditions: NCI-H460, 72 h, read-out: Activity
[2] = tested on: NCI-H460; experiment: Cytotoxicity against human NCI-H460 cells at 30 uM after 48 hrs by MTT assay relative to control; type: functional
[3] = tested on: NCI-H460; experiment: Induction of apoptosis in human NCI-H460 cells assessed as late apoptotic cells at 10 uM after 72 hrs by Annexin V-alexa fluor 488/propidium iodide staining based flow cytometry (reference value: 0.34%); type: functional
[4] = tested on: NCI-H460; experiment: Induction of mitochondrial membrane potential loss in human NCI-H460 cells assessed as depolarized cell population at 1 uM after 72 hrs by JC1 staining based flow cytometry (reference value: 11.63%); type: functional
[5] = tested on: NCI-H460; experiment: Induction of apoptosis in human NCI-H460 cells assessed as late apoptotic cells at 5 uM after 72 hrs by Annexin V-alexa fluor 488/propidium iodide staining based flow cytometry (reference value: 0.34%); type: functional
[6] = tested on: HeLa; experiment: Cytotoxicity against human HeLa cells after 72 hrs by MTT assay; type: functional, cell-based
[7] = tested on: NCI-H460; experiment: Induction of apoptosis in human NCI-H460 cells assessed as appearance of horse-shoe shaped nuclei at 0.25 to 10 uM after 72 hrs by DAPI staining based fluorescence microscopic analysis; type: functional, cell-based
[8] = tested on: NCI-H460; experiment: Cytotoxicity against human NCI-H460 cells after 72 hrs by MTT assay; type: functional, cell-based; conditions: NCI-H460, 72 h
[9] = tested on: NCI-H460; experiment: Induction of mitochondrial membrane potential loss in human NCI-H460 cells assessed as depolarized cell population at 2.5 uM after 72 hrs by JC1 staining based flow cytometry (reference value: 11.63%); type: functional
[10] = tested on: NCI-H460; experiment: Induction of apoptosis in human NCI-H460 cells assessed as early apoptotic cells at 1 uM after 72 hrs by Annexin V-alexa fluor 488/propidium iodide staining based flow cytometry (reference value: 0.77%); type: functional
[11] = tested on: NCI-H460; experiment: Induction of apoptosis in human NCI-H460 cells assessed as late apoptotic cells at 1 uM after 72 hrs by Annexin V-alexa fluor 488/propidium iodide staining based flow cytometry (reference value: 0.34%); type: functional
[12] = tested on: NCI-H460; experiment: Cell cycle arrest in human NCI-H460 cells assessed as accumulation at S phase at 10 uM after 24 hrs by propidium iodide staining based flow cytometry (reference value: 9.93%); type: functional
[13] = tested on: NCI-H460; experiment: Induction of mitochondrial membrane potential loss in human NCI-H460 cells assessed as depolarized cell population at 5 uM after 72 hrs by JC1 staining based flow cytometry (reference value: 11.63%); type: functional
[14] = tested on: NCI-H460; experiment: Cell cycle arrest in human NCI-H460 cells assessed as accumulation at S phase at 1 uM after 24 hrs by propidium iodide staining based flow cytometry (reference value: 9.93%); type: functional
[15] = tested on: NCI-H460; experiment: Cell cycle arrest in human NCI-H460 cells assessed as accumulation at G0/G1 phase at 10 uM after 24 hrs by propidium iodide staining based flow cytometry (reference value: 49.6%); type: functional
[16] = tested on: NCI-H460; experiment: Induction of mitochondrial membrane potential loss in human NCI-H460 cells assessed as increase in depolarized cell population after 72 hrs by JC1 staining based flow cytometry; type: functional
[17] = tested on: NCI-H460; experiment: Cell cycle arrest in human NCI-H460 cells assessed as accumulation at G0/G1 phase at 1 uM after 24 hrs by propidium iodide staining based flow cytometry (reference value: 49.6%); type: functional
[18] = tested on: NCI-H460; experiment: Cell cycle arrest in human NCI-H460 cells assessed as accumulation at S phase at 5 uM after 24 hrs by propidium iodide staining based flow cytometry (reference value: 9.93%); type: functional
[19] = tested on: NCI-H460; experiment: Induction of apoptosis in human NCI-H460 cells assessed as appearance of condensed nuclei at 0.25 to 10 uM after 72 hrs by DAPI staining based fluorescence microscopic analysis; type: functional, cell-based
[20] = tested on: NCI-H460; experiment: Cell cycle arrest in human NCI-H460 cells assessed as accumulation at G0/G1 phase at 5 uM after 24 hrs by propidium iodide staining based flow cytometry (reference value: 49.6%); type: functional
[21] = tested on: NCI-H460; experiment: Induction of apoptosis in human NCI-H460 cells assessed as cell shrinkage at 0.25 to 10 uM after 72 hrs by acridine orange/ethidium bromide staining based fluorescence microscopic analysis; type: functional
[22] = tested on: NCI-H460; experiment: Cell cycle arrest in human NCI-H460 cells assessed as accumulation at sub-G1 phase at 2.5 uM after 24 hrs by propidium iodide staining based flow cytometry (reference value: 0.99%); type: functional
[23] = tested on: NCI-H460; experiment: Induction of apoptosis in human NCI-H460 cells assessed as viable cells at 2.5 uM after 72 hrs by Annexin V-alexa fluor 488/propidium iodide staining based flow cytometry (reference value: 98.55%); type: functional; conditions: NCI-H460, 72 h, read-out: Activity
[24] = tested on: HCT-116; experiment: Cytotoxicity against human HCT116 cells at 30 uM after 48 hrs by MTT assay relative to control; type: functional
[25] = tested on: NCI-H460; experiment: Cell cycle arrest in human NCI-H460 cells assessed as accumulation at G2/M phase at 2.5 uM after 24 hrs by propidium iodide staining based flow cytometry (reference value: 35.49%); type: functional

For `CCOC(=O)/C(=C(\N)C(=O)c1ccccc1)C1C(=O)N(C)c2ccc(F)cc21` (stereo not given), the viability at 1 µM [1] was 87.9%, the Activity [2] was >50% and the Activity [3] was 1.78%. The Activity [4] was 42.95%, the Activity [5] was 3.27% and the IC50 [6] was 2.99 µM. The Activity [7] was “Active”, the IC50 [8] was 1.4 µM and the Activity [9] was 71.6%. For the same compound, the Activity [10] was 8.72%, the Activity [11] was 3.15% and the Activity [12] was 3.42%. It also gave an Activity [13] of 83.8%, an Activity [14] of 6.55% and an Activity [15] of 9.18%. For the same compound, the Activity [16] was “Dose-dependent effect”, the Activity [17] was 9.77% and the Activity [18] was 3.59%. For the same compound, the Activity [19] was “Active”, the Activity [20] was 11.17% and the Activity [21] was “Active”. The Activity [22] was 9.91%, the viability at 2.5 µM [23] was 75.9% and the Activity [24] was >50%. For the same compound, the Activity [25] was 64.03%.
